Laboratory results reported in patent publication US11447498B2, “Fused tetracyclic compounds and uses thereof in medicine” (SUNSHINE LAKE PHARMA CO., LTD., priority 2018, dated 2022).

Key:
HBsAg secretion = assay: Inhibition experiment on HBsAg secretion (HepG 2,2,15 cells, ELISA); format: cell-based; conditions: Hepatitis B virus, HepG2.2.15, read-out: HBsAg IC50
Excerpt: (§1) The chromosomal integration of HepG2,2,15 cells (SELLS, PNAS, 1987 and SELLS, JV, 1988) has a complete HBV genome and stably expresses viral RNA and viral proteins. HepG2,2,15 cells are capable of secreting mature hepatitis B virus particles and HBsAg into the culture medium. Virus particles DNA and HBsAg secreted by HepG 2,2,15 cells can be quantified by qPCR and ELISA, and the effects of compounds on viral replication and HBsAg secretion can be detected.
(§2) HepG 2,2,15 cells were inoculated with 8,000 per cell to 96-well cell culture plates in duplicate, and were cultured for 3 days until the cells grew to full-hole. Cells were treated with 4-fold serial dilutions of compounds for 10 days, and were given once every other day. The final concentration of DMSO in all pores was 0.5% and DMSO was used as a drug-free control. The supernatant was collected for quantitative detection of HBsAg on day 11.
The level of HBsAg secreted by the cells after treatment of the compound was detected by ELISA method, and the method used a hepatitis B surface antigen diagnostic kit (Shanghai Kehua Biotech Co., Ltd. S10910113). 25 μL of the supernatant to be assayed (PBS was diluted to 75 μL) was added to per well in the ELISA plate, and the kit positive control and negative control were set. The ELIS A plate was blocked with a cover paper and incubated at 37° C. for 60 minutes. The ELISA plate was taken out, and the cover paper was teared off, and 50 μL of enzyme conjugate was added to each well. The ELISA plate was oscillated on the shaker for 10 seconds, blocked with a cover paper and incubated at 37° C. for 30 minutes. The ELISA plate was taken out, the cover paper was teared off, and the ELISA plate was washed 5 times: each time the liquid in the hole was discarded, and the washing liquid was filled into the holes, left to stand for 60 seconds, dried, and the liquid residue was patted to dry on the absorbent paper. A freshly prepared mixture of Developer A and Developer B was added to all wells immediately after washing: 100 μL per well. The ELISA plate was oscillated on the shaker for 10 seconds, blocked with a cover paper and incubated at 37° C. for 30 minutes. 50 μL of stop solution was added to all wells. Absorbance was read on the Envision plate reader at a wavelength of 450 nm.
Concentration-HBsAg OD450 was processed using Graphpad Prism 5 software, and IC50 of compounds inhibiting against HBsAg secretion was calculated by four-parameter nonlinear regression model.

HBV DNA replication = assay: Inhibition experiment on HBV virus replication (HepG 2,2,15 cells, supernatant HBV DNA by qPCR); format: cell-based; conditions: Hepatitis B virus, HepG2.2.15, 10 days treatment, supernatant HBV DNA on day 11
Excerpt: as §1
as §2, with “HBV DNA” for “HBsAg”
Viral genomic DNA was detected by qPCR method, and HBV primers were as follows: […]
The SYBR Premix Ex Taq D-Takara DRR081S kit was used, and 1 μL of cell culture supernatant was used as a template. A standard curve was made using a plasmid containing the HBV genome, and the viral copy number was calculated using the standard curve. Concentration-virus copy number was processed using Graphpad Prism 5 software, and IC50 of compounds inhibiting virus replication was calculated by four-parameter nonlinear regression model.

Work on `CC(C)C1Cc2cc(-c3ccco3)c3c(c2-c2cc(=O)c(C(=O)O)cn21)CCO3` (centres unmarked) [Example 1, 4-(Furan-2-yl)-7-isopropyl-11-oxo-2,6,7,11-tetrahydro-1H-furo[2,3-h]pyrido[2,1-a]isoquinoline-10-carboxylic Acid] yielded an IC50 (HBsAg secretion) of 4.21 nM and an IC50 (HBV DNA replication) of 2.36 nM.

`CC(C)[C@@H]1Cc2cc(OCCC3CC3)c3c(c2-c2cc(=O)c(C(=O)O)cn21)CCO3` [Example 3A, (S)-4-(2-Cyclopropylethoxy)-7-isopropyl-11-oxo-2,6,7,11-tetrahydro-1H-furo [2,3-h]pyrido[2,1-a]isoquinoline-10-carboxylic Acid] was tested, and the IC50 (HBsAg secretion) was 0.76 nM.

`CC(C)C1Cc2cc(OCCOC3CC3)c3c(c2-c2cc(=O)c(C(=O)O)cn21)CCO3` (centres unmarked) [Example 4, 4-(2-Cyclopropoxyethoxy)-7-isopropyl-11-oxo-2,6,7,11-tetrahydro-1H-furo [2,3-h]pyrido[2,1-a]isoquinoline-10-carboxylic Acid] gave an IC50 (HBV DNA replication) of 3.84 nM.

`CC(C)C1Cc2cc(OCC3CCOCC3)c3c(c2-c2cc(=O)c(C(=O)O)cn21)CCO3` (centres unmarked) [Example 5, 7-Isopropyl-11-oxo-4-((tetrahydro-2H-pyran-4-yl)methoxy)-2,6,7,11-tetrahydro-1H-furo[2,3-h]pyrido[2,1-a]isoquinoline-10-carboxylic Acid] was tested, and the IC50 (HBsAg secretion) was 2.35 nM and the IC50 (HBV DNA replication) was 3.4 nM.

`CC(C)C1Cc2cc(OCCc3ccccc3)c3c(c2-c2cc(=O)c(C(=O)O)cn21)CCO3` (centres unmarked) [Example 6, 7-Isopropyl-11-oxo-4-phenylethoxy-2,6,7,11-tetrahydro-1H-furo[2,3-h]pyrido [2,1-a]isoquinoline-10-carboxylic Acid] gave an IC50 (HBsAg secretion) of 1.92 nM and an IC50 (HBV DNA replication) of 0.86 nM.

With `CC(C)C1Cc2cc(OCCC(F)(F)F)c3c(c2-c2cc(=O)c(C(=O)O)cn21)CCO3` (centres unmarked) [Example 7, 7-Isopropyl-11-oxo-4-(3,3,3-trifluoropropoxy)-2,6,7,11-tetrahydro-1H-furo [2,3-h]pyrido[2,1-a]isoquinoline-10-carboxylic Acid] the IC50 (HBV DNA replication) was 1.87 nM.

`CC(C)C1Cc2cc(-c3nccs3)c3c(c2-c2cc(=O)c(C(=O)O)cn21)CCO3` (centres unmarked) [Example 8, 7-isopropyl-11-oxo-4-(thiazol-2-yl)-2,6,7,11-tetrahydro-1H-furo[2,3-h]pyrido [2,1-a]isoquinoline-10-carboxylic Acid] was tested, and the IC50 (HBsAg secretion) was 1.63 nM and the IC50 (HBV DNA replication) was 0.52 nM.

`CC(C)C1Cc2cc(-c3cnn(C(F)F)c3)c3c(c2-c2cc(=O)c(C(=O)O)cn21)CCO3` (centres unmarked) [Example 10, 4-(l (Difluoromethyl)-1H-pyrazol-4-yl)-7-isopropyl-11-oxo-2,6,7,11-tetrahydro-1H-furo[2,3-h]pyrido[2,1-a]isoquinoline-10-carboxylic Acid] gave an IC50 (HBsAg secretion) of 2.34 nM and an IC50 (HBV DNA replication) of 0.98 nM.

Molecule `CC(C)[C@@H]1Cc2cc(-c3cnn(C(F)F)c3)c3c(c2-c2cc(=O)c(C(=O)O)cn21)CCO3` [Example 10A, 4-(1-(Difluoromethyl)-1H-pyrazol-4-yl)-7-isopropyl-11-oxo-2,6,7,11-tetrahydro-1H-furo[2,3-h]pyrido[2,1-a]isoquinoline-10-carboxylic Acid] has an IC50 (HBsAg secretion) of 0.54 nM.

`CC(C)C1Cc2cc(-c3cccs3)c3c(c2-c2cc(=O)c(C(=O)O)cn21)CCO3` (centres unmarked) [Example 11, 7-Isopropyl-11-oxo-4-(thiophen-2-yl)-2,6,7,11-tetrahydro-1H-furo[2,3-h]pyrido[2,1-a]isoquinoline-10-carboxylic Acid] showed an IC50 (HBsAg secretion) of 0.92 nM and an IC50 (HBV DNA replication) of 0.78 nM.

For `COCCCOc1cc2c(c3c1OCC3)-c1cc(=O)c(C(=O)O)cn1N1C2CCC1(C)C` (centres unmarked) [Example 12, 5-(3-Methoxypropoxy)-1,1-dimethyl-10-oxo-2,3,3a,7,8,10-hexahydro-1H-furo [3,2-f]pyrido[1,2-c]pyrrolo[2,1-a]phthalazine-11-carboxylic Acid], the IC50 (HBsAg secretion) was 0.81 nM and the IC50 (HBV DNA replication) was < 0.24 nM.

In the case of `CC(C)n1cc(-c2cc3c(c4c2OCC4)-c2cc(=O)c(C(=O)O)cn2N2C3CCC2(C)C)cn1` (centres unmarked) [Example 14, 5-(1-Isopropyl-1H-pyrazol-4-yl)-1,1-dimethyl-10-oxo-2,3,3a,7,8,10-hexahydro-1H-furo[3,2-f]pyrido[1,2-c]pyrrolo[2,1-a]phthalazine-11-carboxylic Acid], the IC50 (HBsAg secretion) is reported as 0.38 nM and the IC50 (HBV DNA replication) is reported as < 0.24 nM.

Work on `COCCCOc1cc2c(c3c1OCC3)-c1cc(=O)c(C(=O)O)cn1N(C(C)C)C2` [Example 16, 7-Isopropyl-4-(3-methoxypropoxy)-11-oxo-2,6,7,11-tetrahydro-1H-furo[2,3-h]pyrido[2,1-a]phthalazine-10-carboxylic Acid] yielded an IC50 (HBV DNA replication) of 2.49 nM.

In the case of `CC(C)CCOc1cc2c(c3c1OCC3)-c1cc(=O)c(C(=O)O)cn1C(C(C)C)C2` (centres unmarked) [Example 21, 4-(Isopentyloxy)-7-isopropyl-11-oxo-2,6,7,11-tetrahydro-1H-furo[2,3-h]pyrido [2,1-a]isoquinoline-10-carboxylic Acid], the IC50 (HBsAg secretion) is reported as 1.55 nM.

`CC(C)C1Cc2cc(OCC3CCCC3)c3c(c2-c2cc(=O)c(C(=O)O)cn21)CCO3` (centres unmarked) [Example 22, 4-(Cyclopentylmethoxy)-7-isopropyl-11-oxo-2,6,7,11-tetrahydro-1H-furo[2,3-h]pyrido[2,1-a]isoquinoline-10-carboxylic Acid] gave an IC50 (HBV DNA replication) of 2.26 nM.

For `CC(C)C1Cc2cc(OCC3CC3)c3c(c2-c2cc(=O)c(C(=O)O)cn21)CCO3` (centres unmarked) [Example 23, 4-(Cyclopropylmethoxy)-7-isopropyl-11-oxo-2,6,7,11-tetrahydro-11-furo [2,3-h]pyrido[2,1-a]isoquinoline-10-carboxylic Acid], the IC50 (HBsAg secretion) was 1.14 nM and the IC50 (HBV DNA replication) was 3.36 nM.

Work on `CC(C)C1Cc2cc(-c3ccc(-c4ccccc4)cc3)c3c(c2-c2cc(=O)c(C(=O)O)cn21)CCO3` (centres unmarked) [Example 25, 4-([1,1′-Biphenyl]-4-yl)-7-isopropyl-11-oxo-2,6,7,11-tetrahydro-1H-furo[2,3-h]pyrido[2,1-a]isoquinoline-10-carboxylic Acid] yielded an IC50 (HBsAg secretion) of 1.4 nM and an IC50 (HBV DNA replication) of 0.72 nM.

With `COc1ccc(-c2cc3c(c4c2OCC4)-c2cc(=O)c(C(=O)O)cn2C(C(C)C)C3)cc1` (centres unmarked) [Example 26, 7-Isopropyl-4-(4-methoxyphenyl)-11-oxo-2,6,7,11-tetrahydro-1H-furo[2,3-h]pyrido[2,1-a]isoquinoline-10-carboxylic Acid] the IC50 (HBsAg secretion) was 1.33 nM and the IC50 (HBV DNA replication) was 1.09 nM.

For `COc1cccc(-c2cc3c(c4c2OCC4)-c2cc(=O)c(C(=O)O)cn2C(C(C)C)C3)c1` (centres unmarked) [Example 27, 7-Isopropyl-4-(3-methoxyphenyl)-11-oxo-2,6,7,11-tetrahydro-1H-furo[2,3-h]pyrido[2,1-a]isoquinoline-10-carboxylic Acid], the IC50 (HBsAg secretion) was 4.65 nM and the IC50 (HBV DNA replication) was 2.54 nM.

For `CC(C)C1Cc2cc(-c3ccncc3)c3c(c2-c2cc(=O)c(C(=O)O)cn21)CCO3` (centres unmarked) [Example 29, 7-Isopropyl-11-oxo-4-(pyridine-4-yl)-2,6,7,11-tetrahydro-1H-furo[2,3-h]pyrido [2,1-a]isoquinoline-10-carboxylic Acid], the IC50 (HBsAg secretion) was 2.64 nM and the IC50 (HBV DNA replication) was 0.97 nM.

With `CC(C)C1Cc2cc(-c3cncnc3)c3c(c2-c2cc(=O)c(C(=O)O)cn21)CCO3` (centres unmarked) [Example 30, 7-Isopropyl-11-oxo-4-(pyrimidin-5-yl)-2,6,7,11-tetrahydro-1H-furo[2,3-h]pyrido[2,1-a]isoquinoline-10-carboxylic Acid] the IC50 (HBsAg secretion) was 5.3 nM and the IC50 (HBV DNA replication) was 1.95 nM.

Work on `CC(C)C1Cc2cc(C#CC3CC3)c3c(c2-c2cc(=O)c(C(=O)O)cn21)CCO3` (centres unmarked) [Example 31, 4-(Cyclopropylethynyl)-7-isopropyl-11-oxo-2,6,7,11-tetrahydro-1H-furo [2,3-h]pyrido[2,1-a]isoquinoline-10-carboxylic Acid] yielded an IC50 (HBsAg secretion) of 1.39 nM and an IC50 (HBV DNA replication) of 0.72 nM.

Work on `O=C(O)c1cn2c(cc1=O)-c1c(cc(OCCC3CC3)c3c1CCO3)CN2c1nccs1` [Example 47, 4-(2-Cyclopropylethoxy)-11-oxo-7-(thiazol-2-yl)-2,6,7,11-tetrahydro-1H-furo [2,3-h]pyrido[2,1-a]phthalazine-10-carboxylic Acid] yielded an IC50 (HBV DNA replication) of 3.31 nM.
